# Results: patent publication US20090041823A1, “Agent-releasing Vascular Prosthesis” (priority 2003, published 2009)
# Tested on: intimal hyperplasia
# Assay: Patch plasty implantation at the iliac bifurcation, animal model
# Format: in vivo, mini-pigs of the Gottingen type
# Experimental: In a last step the prostheses were implanted in a preliminary animal trial in order to show the impact on intimal hyperplasia. Six mini-pigs of the Gottingen type were used as test animals. The Aa iliacae was prepared by a transperitonial access under general i.v. anaesthesia (Thiopental®) and each a multifunctional and a standard prosthesis were introduced into every animal. All animals obtained an antibiotic prophylaxis (Spizef®) and were anticoagulized with heparin.
# As medicaments each of paclitaxel, sirolimus and IS was used twice. We have applied patch plasties as the border line between prosthesis and artery is bigger compared to end-to-end anastomoses and we could thus assess intimal hyperplasia in cross-section very well. The animals were again subjected to surgery after six weeks and the iliac bifurcation was explanted. Samples in longitudinal direction were derived from the patch plastics in the proximal and in the distal region, respectively, and samples in transversal direction were derived from the medium region. These samples were fixed in formaldehyde. The further processing comprised dehydration in an increasing alcohol series until embedding into paraffin. The preparations were cut and stained in HE and Tri-PAS. Apart from the extent of IH, also integration and inflammatory reactions were assessed.
smiles,measurement,setting,value
CC(=O)O[C@H]1C(=O)[C@@]2(C)[C@H]([C@H](OC(=O)c3ccccc3)[C@]3(O)C[C@H](OC(=O)[C@H](O)[C@@H](NC(=O)c4ccccc4)c4ccccc4)C(C)=C1C3(C)C)[C@]1(OC(C)=O)CO[C@@H]1C[C@@H]2O [paclitaxel],integration of the prosthesis,explanted after 6 weeks,well integrated from outside
same,endothelialization,"patch plasty, explanted after six weeks",complete suppression of endothelialization
